Experimental findings from ChEMBL document CHEMBL5550083, “Structural optimization of a lysine demethylase 5 inhibitor for improvement of its cellular activity” (Bioorg Med Chem, 2024) are described below.

Series [1] deals with T1, Lysine-specific demethylase 5B (Homo sapiens, UniProt Q9UGL1). Kind of series: Inhibition of KDM5B (unknown origin) at 10 nM incubated for 2 hrs by Alphascreen assay. For orientation: Alpha assays give light when donor and acceptor beads are brought close together.
The target in series [2] is T1, Lysine-specific demethylase 5B. Put plainly: Inhibition of KDM5B (unknown origin) incubated for 2 hrs by Alphascreen assay.
Series [3] can be described thus: Apparent permeability of the compound at 100 uM incubated for 4 hrs by PAMPA assay. The class given is ADME.
Series [4] can be described thus: Lipophilicity, log D of the compound in PBS at 100 uM at pH 7.4 incubated for 20 mins by UPLC analysis. Type of series: physicochemical.
The target of series [5] is Lysine-specific demethylase 6B (Homo sapiens, UniProt O15054). Kind of series: Inhibition of KDM6B (unknown origin) incubated for 2 hrs by Alphascreen assay.
Series [6] deals with Lysine-specific demethylase 5C (Homo sapiens, UniProt P41229). Kind of series: Inhibition of KDM5C (unknown origin) incubated for 2 hrs by Alphascreen assay.
Series [7] has as its target T2, Lysine-specific demethylase 3A (Homo sapiens, UniProt Q9Y4C1).
T2 sequence (Q9Y4C1 whole entry): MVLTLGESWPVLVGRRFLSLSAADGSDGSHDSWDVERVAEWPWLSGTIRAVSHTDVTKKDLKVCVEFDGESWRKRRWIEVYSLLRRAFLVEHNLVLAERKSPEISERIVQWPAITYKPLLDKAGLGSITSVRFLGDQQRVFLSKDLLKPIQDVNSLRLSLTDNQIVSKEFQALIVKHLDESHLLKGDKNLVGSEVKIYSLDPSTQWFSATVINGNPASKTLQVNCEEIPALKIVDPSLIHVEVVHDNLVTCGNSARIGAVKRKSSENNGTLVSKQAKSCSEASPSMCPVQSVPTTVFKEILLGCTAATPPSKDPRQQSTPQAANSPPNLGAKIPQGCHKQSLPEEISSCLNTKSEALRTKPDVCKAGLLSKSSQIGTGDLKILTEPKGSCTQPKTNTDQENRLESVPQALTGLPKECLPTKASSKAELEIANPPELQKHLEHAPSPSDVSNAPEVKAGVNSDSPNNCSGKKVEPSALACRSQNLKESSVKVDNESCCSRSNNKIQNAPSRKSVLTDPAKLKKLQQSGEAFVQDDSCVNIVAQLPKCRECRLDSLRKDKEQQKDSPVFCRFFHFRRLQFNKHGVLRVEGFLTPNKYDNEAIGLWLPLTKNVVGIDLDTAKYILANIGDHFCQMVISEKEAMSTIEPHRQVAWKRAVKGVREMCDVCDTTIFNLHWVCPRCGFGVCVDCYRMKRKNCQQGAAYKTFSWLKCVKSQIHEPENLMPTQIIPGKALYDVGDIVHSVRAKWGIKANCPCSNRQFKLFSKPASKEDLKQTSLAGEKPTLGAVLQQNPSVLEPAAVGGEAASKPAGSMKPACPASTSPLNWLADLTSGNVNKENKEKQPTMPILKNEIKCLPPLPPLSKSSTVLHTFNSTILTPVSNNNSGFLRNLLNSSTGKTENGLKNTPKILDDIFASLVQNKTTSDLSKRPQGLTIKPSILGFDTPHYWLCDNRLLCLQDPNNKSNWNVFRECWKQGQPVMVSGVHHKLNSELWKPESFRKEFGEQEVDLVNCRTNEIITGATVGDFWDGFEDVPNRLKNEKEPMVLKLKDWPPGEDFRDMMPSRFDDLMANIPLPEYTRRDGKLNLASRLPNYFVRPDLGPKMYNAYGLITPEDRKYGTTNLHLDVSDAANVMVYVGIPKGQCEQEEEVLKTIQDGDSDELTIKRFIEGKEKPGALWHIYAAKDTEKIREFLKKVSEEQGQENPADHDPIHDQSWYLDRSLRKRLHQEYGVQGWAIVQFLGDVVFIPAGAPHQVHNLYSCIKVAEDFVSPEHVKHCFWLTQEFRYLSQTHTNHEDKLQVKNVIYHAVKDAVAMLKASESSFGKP
Kind of series: Inhibition of KDM3A (unknown origin) incubated for 2 hrs by Alphascreen assay.

In series [8] the target is T3, Lysine-specific demethylase 4A (Homo sapiens, UniProt O75164).
T3 sequence (O75164 whole entry): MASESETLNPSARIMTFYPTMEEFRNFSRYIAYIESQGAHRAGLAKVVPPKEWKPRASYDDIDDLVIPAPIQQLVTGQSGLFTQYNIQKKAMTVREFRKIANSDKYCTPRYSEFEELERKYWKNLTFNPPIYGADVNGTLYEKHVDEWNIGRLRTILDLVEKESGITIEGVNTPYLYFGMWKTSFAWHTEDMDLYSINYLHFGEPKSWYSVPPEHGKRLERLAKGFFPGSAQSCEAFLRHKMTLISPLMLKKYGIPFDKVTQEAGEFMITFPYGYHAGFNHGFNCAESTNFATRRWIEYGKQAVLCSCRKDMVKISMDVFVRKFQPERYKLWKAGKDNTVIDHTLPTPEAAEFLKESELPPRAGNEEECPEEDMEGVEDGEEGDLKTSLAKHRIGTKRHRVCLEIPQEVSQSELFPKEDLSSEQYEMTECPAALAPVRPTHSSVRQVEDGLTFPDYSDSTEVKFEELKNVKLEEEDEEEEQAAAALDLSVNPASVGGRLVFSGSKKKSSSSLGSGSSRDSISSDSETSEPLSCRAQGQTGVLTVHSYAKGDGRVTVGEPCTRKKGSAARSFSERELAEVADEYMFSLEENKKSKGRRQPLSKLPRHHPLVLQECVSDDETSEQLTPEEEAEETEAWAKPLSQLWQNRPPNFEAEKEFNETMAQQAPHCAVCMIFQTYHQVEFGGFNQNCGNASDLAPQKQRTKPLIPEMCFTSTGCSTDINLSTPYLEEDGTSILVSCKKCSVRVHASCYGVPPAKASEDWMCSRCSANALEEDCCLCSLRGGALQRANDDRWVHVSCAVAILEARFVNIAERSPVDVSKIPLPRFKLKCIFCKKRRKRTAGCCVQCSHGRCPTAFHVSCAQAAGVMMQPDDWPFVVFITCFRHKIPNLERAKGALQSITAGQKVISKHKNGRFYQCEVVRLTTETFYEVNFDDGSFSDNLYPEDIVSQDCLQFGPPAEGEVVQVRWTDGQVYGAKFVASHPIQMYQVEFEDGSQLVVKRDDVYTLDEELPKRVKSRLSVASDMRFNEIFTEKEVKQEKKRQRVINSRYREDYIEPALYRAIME
Put plainly: Inhibition of KDM4A (unknown origin) incubated for 2 hrs by Alphascreen assay.

Series [9] deals with Lysine-specific demethylase 5A (Homo sapiens, UniProt P29375). Put plainly: Inhibition of KDM5A (unknown origin) incubated for 2 hrs by Alphascreen assay.
The test system of series [10] is A549. Kind of series: Inhibition of KDM5 in human A549 cells assessed as increase in H3K4me3 level at 400 nM incubated for 18 hrs by Western blot analysis. The class given is cell-based. A general note: Immunoblotting shows a protein as a band on a membrane.
Series [11] concerns A549. Kind of series: Inhibition of KDM6 in human A549 cells assessed as increase in H3K27me3 level at 100 to 400 nM incubated for 18 hrs by Western blot analysis. Type of series: cell-based. The settings on record: dose 100-400 nM.
For series [12], the system named is A549. Kind of series: Inhibition of KDM5 in human A549 cells assessed as increase in H3K4me3 level at 400 nM by Western blot analysis. The class given is cell-based. The settings on record: time 1-18 hrs, TDE = time-dependent effect.
Series [13] relates to A549. Kind of series: Inhibition of KDM4 in human A549 cells assessed as increase in H3K9me3 level at 100 to 400 nM incubated for 18 hrs by Western blot analysis. The class given is cell-based. The settings on record: dose 100-400 nM.
Series [14] deals with A549. Put plainly: Inhibition of KDM5 in human A549 cells assessed as increase in H3K4me3 level incubated for 18 hrs by Western blot analysis. The following applies: dose 100-400 nM. Type of series: cell-based.

Active and inactive are the calls of the source. The calls are words filed in the database; no cut-off is given here.

Usually IC50 stands for the point on the concentration scale where inhibition reaches its midpoint. Read a low IC50 as inhibition by little substance. As usually defined, the Papp is the rate of passage across a membrane or cell layer, normalised by area and donor concentration. A word on the logD: it is the decadic logarithm of the distribution of all forms, ionised or not, between an organic phase and buffer at a given pH.

T1 sequence (Q9UGL1 whole entry): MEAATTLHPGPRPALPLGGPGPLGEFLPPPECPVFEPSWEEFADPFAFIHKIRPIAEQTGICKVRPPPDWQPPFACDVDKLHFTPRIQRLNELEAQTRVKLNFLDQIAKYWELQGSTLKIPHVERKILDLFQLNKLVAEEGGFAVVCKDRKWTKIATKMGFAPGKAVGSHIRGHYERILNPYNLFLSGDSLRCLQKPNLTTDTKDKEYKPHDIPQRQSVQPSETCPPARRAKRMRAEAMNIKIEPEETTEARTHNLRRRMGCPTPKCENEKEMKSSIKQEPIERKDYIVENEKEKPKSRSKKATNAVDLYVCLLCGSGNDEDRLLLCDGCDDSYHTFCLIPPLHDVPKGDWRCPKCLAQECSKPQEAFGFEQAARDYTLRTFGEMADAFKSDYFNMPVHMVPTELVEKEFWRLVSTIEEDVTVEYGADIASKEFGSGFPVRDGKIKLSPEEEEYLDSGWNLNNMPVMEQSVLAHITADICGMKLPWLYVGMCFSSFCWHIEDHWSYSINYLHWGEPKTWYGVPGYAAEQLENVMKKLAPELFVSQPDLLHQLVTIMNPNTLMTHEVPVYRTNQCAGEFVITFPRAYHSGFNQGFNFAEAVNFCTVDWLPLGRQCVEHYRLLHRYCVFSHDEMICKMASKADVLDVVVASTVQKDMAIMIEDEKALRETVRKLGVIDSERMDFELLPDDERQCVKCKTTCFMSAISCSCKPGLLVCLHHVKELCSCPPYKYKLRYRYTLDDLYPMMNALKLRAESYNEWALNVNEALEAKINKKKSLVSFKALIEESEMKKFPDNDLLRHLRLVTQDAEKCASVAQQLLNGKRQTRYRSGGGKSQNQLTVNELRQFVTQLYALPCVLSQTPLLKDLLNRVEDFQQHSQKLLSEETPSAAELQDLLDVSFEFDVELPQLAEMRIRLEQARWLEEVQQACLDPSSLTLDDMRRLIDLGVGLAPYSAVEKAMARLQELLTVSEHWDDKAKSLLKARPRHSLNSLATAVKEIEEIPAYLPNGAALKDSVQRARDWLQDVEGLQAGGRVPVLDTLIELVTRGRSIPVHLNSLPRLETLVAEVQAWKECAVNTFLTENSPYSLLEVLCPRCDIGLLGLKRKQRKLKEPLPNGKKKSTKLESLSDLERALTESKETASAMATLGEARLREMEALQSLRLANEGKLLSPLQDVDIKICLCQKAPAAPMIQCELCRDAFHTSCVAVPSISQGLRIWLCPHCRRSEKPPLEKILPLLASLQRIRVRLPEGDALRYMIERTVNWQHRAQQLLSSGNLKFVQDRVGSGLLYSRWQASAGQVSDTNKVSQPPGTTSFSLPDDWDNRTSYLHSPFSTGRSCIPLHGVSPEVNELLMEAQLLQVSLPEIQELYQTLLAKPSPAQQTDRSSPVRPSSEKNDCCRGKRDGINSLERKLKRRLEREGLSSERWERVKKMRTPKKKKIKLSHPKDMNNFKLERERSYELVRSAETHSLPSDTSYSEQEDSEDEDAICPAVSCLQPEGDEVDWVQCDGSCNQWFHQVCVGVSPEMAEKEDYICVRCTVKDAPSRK
Lysine-specific demethylase 6B, sequence (O15054 whole entry): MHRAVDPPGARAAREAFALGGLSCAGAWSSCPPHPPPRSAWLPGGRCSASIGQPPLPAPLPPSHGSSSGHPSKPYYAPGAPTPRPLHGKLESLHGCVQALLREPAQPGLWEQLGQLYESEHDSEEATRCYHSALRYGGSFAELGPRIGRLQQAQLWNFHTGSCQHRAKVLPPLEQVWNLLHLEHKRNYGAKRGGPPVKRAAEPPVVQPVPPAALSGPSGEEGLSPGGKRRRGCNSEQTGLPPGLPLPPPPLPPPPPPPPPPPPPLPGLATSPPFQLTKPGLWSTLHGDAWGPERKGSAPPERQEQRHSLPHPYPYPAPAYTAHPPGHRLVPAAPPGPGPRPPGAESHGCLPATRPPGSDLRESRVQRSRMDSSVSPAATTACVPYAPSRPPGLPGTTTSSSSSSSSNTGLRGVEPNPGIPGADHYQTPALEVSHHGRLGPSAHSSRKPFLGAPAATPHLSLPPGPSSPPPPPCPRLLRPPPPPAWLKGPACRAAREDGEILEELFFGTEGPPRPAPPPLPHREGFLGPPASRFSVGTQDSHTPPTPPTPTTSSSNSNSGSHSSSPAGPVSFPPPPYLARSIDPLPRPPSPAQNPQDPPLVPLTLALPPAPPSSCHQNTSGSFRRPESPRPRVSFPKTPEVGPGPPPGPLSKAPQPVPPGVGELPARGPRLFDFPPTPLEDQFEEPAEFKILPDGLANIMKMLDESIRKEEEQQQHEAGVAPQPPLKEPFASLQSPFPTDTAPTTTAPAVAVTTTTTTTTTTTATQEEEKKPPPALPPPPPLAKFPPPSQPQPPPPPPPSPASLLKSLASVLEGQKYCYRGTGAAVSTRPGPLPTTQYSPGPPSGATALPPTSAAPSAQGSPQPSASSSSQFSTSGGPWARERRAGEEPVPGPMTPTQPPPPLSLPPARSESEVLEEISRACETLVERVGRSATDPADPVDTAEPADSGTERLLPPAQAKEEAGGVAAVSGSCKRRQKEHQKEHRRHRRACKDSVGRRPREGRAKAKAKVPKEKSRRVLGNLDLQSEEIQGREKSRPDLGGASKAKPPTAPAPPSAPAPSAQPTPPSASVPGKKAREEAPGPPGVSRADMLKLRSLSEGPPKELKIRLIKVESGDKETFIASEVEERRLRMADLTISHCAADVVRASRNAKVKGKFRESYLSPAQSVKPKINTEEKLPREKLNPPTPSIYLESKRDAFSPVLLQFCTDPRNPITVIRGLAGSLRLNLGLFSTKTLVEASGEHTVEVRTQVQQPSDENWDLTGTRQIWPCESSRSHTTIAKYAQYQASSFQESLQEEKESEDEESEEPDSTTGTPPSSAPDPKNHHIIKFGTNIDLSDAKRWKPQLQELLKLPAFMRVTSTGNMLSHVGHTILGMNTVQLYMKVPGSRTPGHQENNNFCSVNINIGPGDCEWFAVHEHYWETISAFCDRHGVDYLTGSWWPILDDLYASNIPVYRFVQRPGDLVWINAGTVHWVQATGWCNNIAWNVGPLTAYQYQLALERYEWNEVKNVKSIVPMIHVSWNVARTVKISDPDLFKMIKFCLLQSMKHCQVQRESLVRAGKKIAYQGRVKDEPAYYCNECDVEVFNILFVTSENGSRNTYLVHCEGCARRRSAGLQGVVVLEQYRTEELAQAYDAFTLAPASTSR
Lysine-specific demethylase 5C, sequence (P41229 whole entry): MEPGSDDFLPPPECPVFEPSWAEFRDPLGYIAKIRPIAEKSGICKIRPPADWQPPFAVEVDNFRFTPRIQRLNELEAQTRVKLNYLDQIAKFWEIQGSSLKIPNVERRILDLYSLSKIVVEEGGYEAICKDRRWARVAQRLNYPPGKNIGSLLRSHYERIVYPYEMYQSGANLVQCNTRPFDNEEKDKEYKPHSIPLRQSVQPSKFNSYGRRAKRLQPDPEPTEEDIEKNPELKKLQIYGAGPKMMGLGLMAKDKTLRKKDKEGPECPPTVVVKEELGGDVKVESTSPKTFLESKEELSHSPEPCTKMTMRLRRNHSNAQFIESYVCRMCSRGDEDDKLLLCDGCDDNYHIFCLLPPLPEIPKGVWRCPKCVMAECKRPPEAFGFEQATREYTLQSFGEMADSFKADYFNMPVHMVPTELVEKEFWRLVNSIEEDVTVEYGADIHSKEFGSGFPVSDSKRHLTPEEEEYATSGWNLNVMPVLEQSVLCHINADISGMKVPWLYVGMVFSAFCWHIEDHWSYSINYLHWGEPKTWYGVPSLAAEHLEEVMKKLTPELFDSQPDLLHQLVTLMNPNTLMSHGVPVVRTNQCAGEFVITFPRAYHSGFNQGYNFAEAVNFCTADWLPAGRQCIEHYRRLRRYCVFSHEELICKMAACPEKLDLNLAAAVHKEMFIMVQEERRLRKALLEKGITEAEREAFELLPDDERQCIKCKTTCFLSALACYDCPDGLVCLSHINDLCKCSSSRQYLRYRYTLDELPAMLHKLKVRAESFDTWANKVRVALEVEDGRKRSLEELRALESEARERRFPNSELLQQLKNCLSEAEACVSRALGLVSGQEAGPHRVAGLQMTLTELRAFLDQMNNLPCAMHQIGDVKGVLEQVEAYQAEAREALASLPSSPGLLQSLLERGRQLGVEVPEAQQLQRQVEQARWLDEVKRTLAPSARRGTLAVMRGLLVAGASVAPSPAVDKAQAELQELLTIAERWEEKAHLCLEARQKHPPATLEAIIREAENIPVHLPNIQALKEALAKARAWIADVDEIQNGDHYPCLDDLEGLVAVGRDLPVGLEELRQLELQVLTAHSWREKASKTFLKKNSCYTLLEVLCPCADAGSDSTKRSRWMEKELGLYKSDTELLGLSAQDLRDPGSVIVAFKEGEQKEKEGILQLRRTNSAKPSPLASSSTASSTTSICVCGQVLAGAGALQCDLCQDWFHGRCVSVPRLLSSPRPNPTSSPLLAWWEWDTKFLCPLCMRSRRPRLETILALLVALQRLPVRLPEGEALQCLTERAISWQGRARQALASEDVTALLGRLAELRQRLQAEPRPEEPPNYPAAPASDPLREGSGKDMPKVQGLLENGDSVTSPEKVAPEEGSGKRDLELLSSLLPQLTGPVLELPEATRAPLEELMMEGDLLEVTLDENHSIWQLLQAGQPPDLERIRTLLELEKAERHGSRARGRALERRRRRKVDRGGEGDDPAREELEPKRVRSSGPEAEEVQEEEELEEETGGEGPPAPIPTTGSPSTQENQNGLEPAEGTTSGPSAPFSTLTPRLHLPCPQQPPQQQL

As to `CCCCN(CCCC)CCN(CC)C(=O)CNCc1cc(C(=O)O)ccn1`, in series [1], the inhibition activity call is “Active”.
`CCN(CCN(C)Cc1ccccc1)C(=O)CNCc1cc(C(=O)O)ccn1`: the inhibition activity call in series [1] is “Active”. The same compound returned an IC50 in series [2] of 8.42 nM.
With `CCCN(C)CCN(CC)C(=O)CNCc1cc(C(=O)O)ccn1`, in series [1], the inhibition activity call was “Active”. Further, it took 6.32 nM to reach half-maximal inhibition in series [2] (IC50).
Consider `CCN(C)CCN(CC)C(=O)CNCc1cc(C(=O)O)ccn1`, for which the inhibition activity call in [1] is “Active”. In addition, the half-maximal inhibitory concentration (IC50) in series [2] was found to be 6.94 nM.
For `CCN(CCN(C)C(C)C)C(=O)CNCc1cc(C(=O)O)ccn1` the same measures were “Active” and 3.05 nM.
Consider `CCOC(=O)c1ccnc(CNCC(=O)N(CC)CCN(C)C)c1`, for which the Papp at 4 h, 100 µM in [3] amounted to 0.1 ×10⁻⁶ cm/s. In [4], the logD at 20 min, 100 µM was found to be 1.5. Besides, the IC50 in [2] came out at 207 nM.
As for `CC(C)NCC(O)COc1cccc2ccccc12` (stereo not given) [PROPRANOLOL], the Papp at 4 h, 100 µM in series [3] came to 3.9 ×10⁻⁶ cm/s.
On to `CCCCN(C)CCN(CC)C(=O)CNCc1cc(C(=O)O)ccn1`, for which the IC50 in series [5] is greater than 5000 nM; in series [6] it was 13.6 nM; in series [7], greater than 50000 nM; in series [8], 389 nM; in [9] it was 1.22 nM.
Consider `CCN(CCN(C)C)C(=O)CNCc1cc(C(=O)O)ccn1`, for which the IC50 is greater than 5000 nM in series [5]; 9.92 nM in series [6]; greater than 50000 nM in series [7]; 172 nM in series [8]; 1.42 nM in [9]; 2.23 nM in series [2].
In the case of `CCN(CCN(C(C)C)C(C)C)C(=O)CNCc1cc(C(=O)O)ccn1`, the inhibition activity call in [1] was “Active”.
Consider `CCN(CC)CCN(CC)C(=O)CNCc1cc(C(=O)O)ccn1`, for which, in series [1], the inhibition activity call is “Active”.
On the same count and under the same terms, the entry for `CCN(CCN(Cc1ccccc1)Cc1ccccc1)C(=O)CNCc1cc(C(=O)O)ccn1` is “Active”; for `CCCN(CCC)CCN(CC)C(=O)CNCc1cc(C(=O)O)ccn1` it is “Active”.
Take `CCCCN(C)CCN(CC)C(=O)CNCc1cc(C(=O)OCC)ccn1`: the inhibition result in the series with A549 [10] was “Active”. Besides, the Papp at 4 h, 100 µM in [3] came out at 0.6 ×10⁻⁶ cm/s. Further, the inhibition result in the series with A549 [11] and with A549 [13] was “inactive” in each case. Besides, the inhibition result is “Tde” in the series on A549 [12] and “Dose-Dependent Effect” with A549 [14]. The same compound showed a logD at 20 min, 100 µM in series [4] of 2.2.
